Molecules are shown by their SMILES.

The subject of the first test is HBV viral load production from HepAD38 cells. The test is described as follows: Viral production from HepAD38 cells: viral load in supernatant by qPCR of the HBV core sequence. The following applies: 5 days incubation, qPCR of supernatant HBV DNA vs DMSO control, read-out: viral load lowering EC50 (Activity). It is filed as cell-based. The procedure, abridged: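 HepAD38 cells seeded at 50,000/well in tetracycline-free medium with 2% FBS, treated with compounds (final top concentration 10 μM) for 5 days at 37 °C. Supernatant HBV DNA quantified by TaqMan qPCR of core sequence against HBV DNA standards, relative to DMSO controls; EC50 by four-parameter logistic fit.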
Broadly, the EC50 is the concentration that produces a half-maximal response. For `CN1C(C(=O)Nc2ccc(F)c(Cl)c2)CC(C(=O)NCc2cnc(N)s2)NS1(=O)=O` (single isomer, unassigned) [1132-ISOMER-B, N5-[(2-aminothiazol-5-yl)methyl]-N3-(3-chloro-4-fluoro-phenyl)-2-methyl-1,1-dioxo-1,2,6-thiadiazinane-3,5-dicarboxamide], the EC50 was 100 to 10000 nM.

On to `CCN1CCC(Oc2ccc(-c3ncc(CNC(=O)C4CC(C(=O)Nc5ccc(F)c(Cl)c5)N(C)S(=O)(=O)N4)s3)cc2)CC1` (single isomer, unassigned) [Compound 921-ISOMER-B, N3-(3-chloro-4-fluoro-phenyl)-N5-[[2-[4-[(1-ethyl-4-piperidyl)oxy]phenyl]thiazol-5-yl]methyl]-2-methyl-1,1-dioxo-1,2,6-thiadiazinane-3,5-dicarboxamide], for which the EC50 was in the range of 50 to 100 nM. Take `Cc1c(CNC(=O)C2CC(C(=O)Nc3ccc(F)c(Cl)c3)N(C)S(=O)(=O)N2)nnn1-c1ccccc1` (single isomer, unassigned; isomer-a) [1148-ISOMER-A, N3-(3-chloro-4-fluoro-phenyl)-2-methyl-N5-[(5-methyl-1-phenyl-triazol-4-yl)methyl]-1,1-dioxo-1,2,6-thiadiazinane-3,5-dicarboxamide]: the EC50 was 50 to 100 nM. Take `Cc1nc(-c2ccccc2F)sc1[C@@H](NC(=O)C1CC(C(=O)Nc2ccc(F)c(Cl)c2)N(C)S(=O)(=O)N1)c1ccccc1` (single isomer, unassigned; isomer-d) [1101-ISOMER-D]: the EC50 fell in the range of 100 to 10000 nM.

With `Cc1cn(-c2ccc(F)cc2)nc1CNC(=O)C1CC(C(=O)Nc2ccc(F)c(Cl)c2)N(C)S(=O)(=O)N1` (single isomer, unassigned) [1141-ISOMER-B, N3-(3-chloro-4-fluoro-phenyl)-N5-[[1-(4-fluorophenyl)-4-methyl-pyrazol-3-yl]methyl]-2-methyl-1,1-dioxo-1,2,6-thiadiazinane-3,5-dicarboxamide], the 50% effective concentration (EC50) was in the range of 100 to 10000 nM. As to `CCN1C(C(=O)Nc2ccc(F)c(Cl)c2)CC(C(=O)NC2CCN(C(=O)OC)CC2)NS1(=O)=O` (single isomer, unassigned) [Compound 890-ISOMER-B, methyl 4-[[5-[(3-chloro-4-fluoro-phenyl)carbamoyl]-6-ethyl-1,1-dioxo-1,2,6-thiadiazinane-3-carbonyl]amino]piperidine-1-carboxylate], the EC50 was in the range of 100 to 10000 nM. With `CN1C(C(=O)Nc2ccc(F)c(Cl)c2)CC(C(=O)NCc2cnc(-c3cccnc3)s2)NS1(=O)=O` (single isomer, unassigned; isomer-b) [Compound 911-ISOMER-B, N3-(3-chloro-4-fluoro-phenyl)-2-methyl-1,1-dioxo-N5-[[2-(3-pyridyl)thiazol-5-yl]methyl]-1,2,6-thiadiazinane-3,5-dicarboxmaide], the EC50 is below 50 nM. For the compound `CN1C(C(=O)Nc2ccc(F)c(Cl)c2)CC(C(=O)NCc2ccc(Cl)cc2)NS1(=O)=O` (single isomer, unassigned) [Compound 729-ISOMER-B, N3-(3-chloro-4-fluoro-phenyl)-N5-[(4-chlorophenyl)methyl]-2-methyl-1,1-dioxo-1,2,6-thiadiazinane-3,5-dicarboxamide], the EC50 fell in the range of 100 to 10000 nM. The same measure, in the same setting: the figure for `COc1ccc(CNC(=O)C2CC(C(=O)Nc3ccc(F)c(Cl)c3)N(C)S(=O)(=O)N2)cc1` (single isomer, unassigned) [Compound 717-ISOMER-B, N3-(3-chloro-4-fluoro-phenyl)-N5-[(4-methoxyphenyl)methyl]-2-methyl-1,1-dioxo-1,2,6-thiadiazinane-3,5-dicarboxamide] is 50 to 100 nM. Regarding `CN1C(C(=O)Nc2ccc(F)c(Cl)c2)CC(C(=O)NCc2nn(-c3ccccc3F)c3ccccc23)NS1(=O)=O` (single isomer, unassigned) [1086-ISOMER-B, N3-(3-chloro-4-fluoro-phenyl)-N5-[[1-(2-fluorophenyl)indazol-3-yl]methyl]-2-methyl-1,1-dioxo-1,2,6-thiadiazinane-3,5-dicarboxamide], the EC50 was 100 to 10000 nM.

Staying with this test, now noted: Hepatitis B virus, HePAD38, 120 h, 5 days incubation, qPCR of supernatant HBV DNA vs DMSO control, read-out: viral load lowering EC50 (Activity).
Turning to `CN1C(C(=O)Nc2ccc(F)c(Cl)c2)CC(C(=O)N[C@@H](c2ccccc2)c2cnc(-c3ccccc3)s2)NS1(=O)=O` (single isomer, unassigned) [1067-ISOMER-B], the 50% effective concentration (EC50) was 100 to 10000 nM. For the compound `CN1C(C(=O)Nc2ccc(F)c(Cl)c2)CC(C(=O)NCc2cnc(-c3ccccn3)s2)NS1(=O)=O` (centres unmarked) [Compound 1162], the EC50 is below 50 nM. With `CC(NC(=O)C1CC(C(=O)Nc2ccc(F)c(Cl)c2)N(C)S(=O)(=O)N1)c1cnc(Cl)s1` (centres unmarked) [Compound 1030], the EC50 was below 50 nM. With `COc1ccc(-c2ncc(CNC(=O)C3CC(C(=O)Nc4ccc(F)c(Cl)c4)N(C)S(=O)(=O)N3)s2)cc1` (centres unmarked) [Compound 932], the EC50 is below 50 nM.

Turning to `CN1C(C(=O)Nc2ccc(F)c(Cl)c2)CC(C(=O)N[C@H]2CCCc3ccccc32)NS1(=O)=O` (some centres unmarked) [Compound 731], the EC50 lay within 100 to 10000 nM.

Turning to `CN1C(C(=O)Nc2ccc(F)c(Cl)c2)CC(C(=O)NCc2cnc(-c3cscn3)s2)NS1(=O)=O` (centres unmarked) [Compound 929], the EC50 was below 50 nM. In the case of `CN1C(C(=O)Nc2ccc(F)c(Cl)c2)CC(C(=O)NC2CCCCC2)NS1(=O)=O` (centres unmarked) [Compound 728], the concentration for a half-maximal effect (EC50) fell in the range of 100 to 10000 nM. On the same count and under the same terms, the figure for `CN1C(C(=O)Nc2ccc(F)c(Cl)c2)CC(C(=O)NC2CCN(C(=O)C3CC3)CC2)NS1(=O)=O` (centres unmarked) [Compound 854] is below 50 nM. For `Cc1nc2c(s1)C(NC(=O)C1CC(C(=O)Nc3ccc(F)c(Cl)c3)N(C)S(=O)(=O)N1)CCC2` (centres unmarked) [Compound 918], the EC50 was below 50 nM. Turning to `CN1C(C(=O)Nc2ccc(F)c(Cl)c2)CC(C(=O)NC2CCN(c3cc(Cl)ccn3)CC2)NS1(=O)=O` (single isomer, unassigned) [Compound 974-ISOMER-A, N3-(3-chloro-4-fluoro-phenyl)-N5-[1-(4-chloro-2-pyridyl)-4-piperidyl]-2-methyl-1,1-dioxo-1,2,6-thiadiazinane-3,5-dicarboxamide], the half-maximal effective concentration (EC50) was below 50 nM. `CN1C(C(=O)Nc2ccc(F)c(Cl)c2)CC(C(=O)NC2CC3CCC2C3)NS1(=O)=O` (centres unmarked) [Compound 858]: the EC50 lay in the range of 100 to 10000 nM. Same read-out and setting: the figure for `CN1C(C(=O)Nc2ccc(F)c(Cl)c2)CC(C(=O)Nc2ccc3cccnc3c2)NS1(=O)=O` (centres unmarked) [Compound 725] is 50 to 100 nM; for `Cc1nc(-c2ccc(F)cc2F)sc1CNC(=O)C1CC(C(=O)Nc2ccc(F)c(Cl)c2)N(C)S(=O)(=O)N1` (centres unmarked) [Compound 1083] it is below 50 nM.

Consider `Cc1ccnc(N2CCC(NC(=O)C3CC(C(=O)Nc4ccc(F)c(Cl)c4)N(C)S(=O)(=O)N3)CC2)c1` (centres unmarked) [Compound 971], for which the concentration for a half-maximal effect (EC50) was below 50 nM. For `CN1C(C(=O)Nc2ccc(F)c(Cl)c2)CC(C(=O)NCc2cnc(C3CCC(C)(C)C3)s2)NS1(=O)=O` (centres unmarked) [Compound 1159], the EC50 was in the range of 100 to 10000 nM. On to `COc1ccccc1CNC(=O)C1CC(C(=O)Nc2ccc(F)c(Cl)c2)N(C)S(=O)(=O)N1` (centres unmarked) [Compound 822], for which the EC50 was below 50 nM. For the compound `COc1ccnc(N2CCC(NC(=O)C3CC(C(=O)Nc4ccc(F)c(Cl)c4)N(C)S(=O)(=O)N3)CC2)c1` (centres unmarked) [Compound 972], the EC50 is below 50 nM. Turning to `CN1C(C(=O)Nc2ccc(F)c(Cl)c2)CC(C(=O)NC2CCN(C(=O)OC(C)(C)C)CC2)NS1(=O)=O` (centres unmarked) [Compound 767], the EC50 was below 50 nM. For the compound `CN1C(C(=O)Nc2ccc(F)c(Cl)c2)CC(C(=O)NC2CCN(c3ccnc(C#N)c3)CC2)NS1(=O)=O` (centres unmarked) [Compound 1089], the EC50 was below 50 nM. Still for that read-out and setting: in the case of `CN1C(C(=O)Nc2ccc(F)c(Cl)c2)CC(C(=O)NCc2nn(-c3ccccc3F)c3ccccc23)NS1(=O)=O` (centres unmarked) [Compound 1086] it was below 50 nM.

For the compound `CN1C(C(=O)Nc2ccc(F)c(Cl)c2)CC(C(=O)NC(c2ccccc2)c2cnc(-c3ccccc3Cl)s2)NS1(=O)=O` (single isomer, unassigned) [1068-ISOMER-A, N3-(3-chloro-4-fluoro-phenyl)-N5-[[2-(2-chlorophenyl)thiazol-5-yl]-phenyl-methyl]-2-methyl-1,1-dioxo-1,2,6-thiadiazinane-3,5-dicarboxamide], the EC50 is below 50 nM. Turning to `Cc1nc(-c2ccccc2Cl)sc1[C@@H](NC(=O)C1CC(C(=O)Nc2ccc(F)c(Cl)c2)N(C)S(=O)(=O)N1)c1ccccc1` (single isomer, unassigned) [1100-ISOMER-D], the EC50 was in the range of 100 to 10000 nM. As for `CN1C(C(=O)N(Cc2cnc(-c3cscn3)s2)c2ccc(F)c(Cl)c2)CC(C(N)=O)NS1(=O)=O` (single isomer, unassigned) [Compound 929-ISOMER-A, N3-(3-chloro-4-fluoro-phenyl)-2-methyl-1,1-dioxo-N-[(2-thiazol-4-ylthiazol-5-yl)methyl]-1,2,6-thiadiazinane-3,5-dicarboxamide], the EC50 fell in the range of 100 to 10000 nM.

On to `CN1C(C(=O)Nc2ccc(F)c(Cl)c2)CC(C(=O)NCc2cnc(-c3ccc(C(F)(F)F)cc3)s2)NS1(=O)=O` (centres unmarked) [Compound 915], for which the EC50 fell in the range of 100 to 10000 nM. On to `CN1C(C(=O)Nc2ccc(F)c(Cl)c2)CC(C(=O)NCc2ccc(Cl)cc2)NS1(=O)=O` (single isomer, unassigned) [Compound 729-ISOMER-A, N3-(3-chloro-4-fluoro-phenyl)-N5-[(4-chlorophenyl)methyl]-2-methyl-1,1-dioxo-1,2,6-thiadiazinane-3,5-dicarboxamide], for which the EC50 is below 50 nM. On to `COc1ccc2nc(CNC(=O)C3CC(C(=O)Nc4ccc(F)c(Cl)c4)N(C)S(=O)(=O)N3)sc2c1` (centres unmarked) [Compound 1011], for which the EC50 is below 50 nM. As for `Cc1nc(-c2ccccc2Cl)sc1[C@H](NC(=O)C1CC(C(=O)Nc2ccc(F)c(Cl)c2)N(C)S(=O)(=O)N1)c1ccccc1` (single isomer, unassigned) [1100-ISOMER-C], the EC50 lay in the range of 100 to 10000 nM. On the same count and under the same terms, the figure for `CN1C(C(=O)Nc2ccc(F)c(Cl)c2)CC(C(=O)NCC2CCCCC2)NS1(=O)=O` (single isomer, unassigned) [1160-ISOMER-A, N3-(3-chloro-4-fluoro-phenyl)-N5-(cyclohexylmethyl)-2-methyl-1,1-dioxo-1,2,6-thiadiazinane-3,5-dicarboxamide] is 50 to 100 nM.

The values above are taken from US20230075856A1, “CYCLIC SULFAMIDE COMPOUNDS FOR TREATMENT OF HBV” (Assembly Biosciences, Inc., priority 2018, published 2023).
